# Data from the NIST ThermoML archive (doi:10.1021/je900460m).
# ± gives the expanded uncertainty stated by the source.
smiles,measurement,setting,value
CCCCCCn1cc[n+](C)c1.N#C[S-] [1-hexyl-3-methylimidazolium thiocyanate],mass density,"298.15 K, 101.33 kPa, Liquid, Pycnometric method",1056.92 ± 11 kg/m3
same,viscosity,"298.15 K, Liquid, Capillary tube (Ostwald / Ubbelohde) method",93.62 ± 3.1 mPa·s
same,Glass transition temperature,"Glass, visual observation",-83.2 ± 3 °C
